Measurements as given in US10034879B2, “Substituted benzaldehyde compounds and methods for their use in increasing tissue oxygenation” (Global Blood Therapeutics, Inc., priority 2011, dated 2018).
Several values for one entry are separate records, joined by “and”; a condition that tells them apart may be missing. Equal entries are not always repeated. Where two headings read alike, the source gives them in different places.

Columns and labels:
HbS = molecular target: T1, HbS (Homo sapiens, UniProt P68871+P69905, E7V); experiment: Whole blood assay, oxygen equilibrium curves of whole blood from sickle cell patients; format: cell-based; details: hematocrit 20%, compound at 1000 μM
T1 construct: Oxygen Equilibrium Curves (OEC) of whole blood before and after treatment; endogenous in cells; host or cells: whole blood (red blood cells) of homozygous sickle cell patients
Method: Oxygen Equilibrium Curves (OEC) of whole blood before and after treatment with different concentrations of substituted benzaldehyde compounds were performed as follows using a HEMOX analyzer (TCS Scientific, New Hope, Pa.). Blood samples from homozygous sickle cell patients were obtained though the Hemoglobinopathy Center at Children's Hospital Oakland Research Institute (CHORI) with Institutional Review Board approval. The hematocrit was adjusted to 20% using autologous plasma and the blood samples were incubated for 1 hour at 37° C. in absence or presence of compounds. 100 μl of these samples were added to 5 mL of Hemox buffer (30 mM TES, 130 mM NaCl, 5 mM KCl, pH=7.4) at 37° C. and then transferred to the Hemox sample chamber. The samples were saturated with oxygen by flushing with compressed air for 10 minutes. The samples were then flushed with pure nitrogen and the respective absorbances of oxy- and deoxy-Hb are recorded as a function of the solution pO2. The oxygen equilibrium data were then fitted to the Hill Model to obtain values for p50. The deoxygenation curves for both whole blood alone (control) and whole blood in the presence of the compound were collected with the TCS software.
Table 5 below lists the delta p50% values where + indicates a delta p50% of between 0 and 29, ++ indicates a delta p50% of between 30 and 50, and +++ indicates a delta p50% of 50 or greater. The compounds in Table 2 were tested at 1000 μM.

[1] = Pharmacokinetic oral study in rat; format: in vivo, SD Rats; details: for AUClast ratio / Cmax ratio: PO, 100 mg/kg vs 44 mg/kg; for Cmax / Tmax: Sprague-Dawley
Method: (§1) Sprague Dawley rats were treated with 7.8 mg/Kg of Compound 43 dissolved in 10% DMA:[…]:16% ca vitron. At specified time points 10 uL of whole blood/plasma was removed from rats and treated with 490 ul pH 3 buffer+500 uL ACN/IS, then shaken for 1 hour, centrifuged for 10 minutes at […] at 4 C. The supernatant was transferred to a filter plate and centrifuged at 2000 rpm for 1 minute at 4 C. The samples were then analyzed by LC-MS/MS monitoring parent aldehyde.
SD Rats were treated by gavage with 44 mg/kg and 100 mg/kg dissolved in 10% DMA:90% PEG. At specified time points blood was taken and worked up as described above in the IV Study.

HbS/A = molecular target: T2, HbS/A (Homo sapiens, UniProt P68871+P69905, E7V); experiment: Relaxed-to-tense transition assay (R/T assay); format: biochemical; details: compound at 30 μm; 3 μM HbS/A
T2 construct: A mixture of HbS/A was purified from blood; from tissue; host or cells: blood of homozygous sickle cell patients
Method: A relaxed-to-tense transition assay (“R/T assay”) was used to determine the ability of substituted benzaldehyde compounds to maintain the high-oxygen affinity relaxed (R) state of hemoglobin under deoxygenated conditions. This ability can be expressed as a “delta R” value (i.e., the change in the time-period of the R state after hemoglobin is treated with a compound, as compared to the period without treatment with the compound). Delta R is the % R to remaining after the compounds treatment compared with no treatment (e.g. if R % without treatment is 8% while with treatment with a target compound is 48% R at 30 μM, then % R is 40% for that compound.
A mixture of HbS/A was purified from blood obtained from homozygous sickle cell patients though the Hemoglobinopathy Center at Children's Hospital Oakland Research Institute (CHORI) with Institutional Review Board approval. HbS/A (at a final concentration of 3 μM) was incubated for 1 hr at 37° C. in presence or absence of compounds in […] potassium phosphate buffer, pH=7.4 and 30 μM 2, 3 diphosphoglycerate (DPG) in 96 well plates in a final volume of 160 μl. Compounds were added at different concentrations (3 μM to 100 μM final concentrations). Plates were covered with a Mylar film. After incubation was completed the Mylar cover was removed and the plates were placed in a Spectrostar Nano plate reader previously heated at 37° C. Five minutes later, N2 (flow rate=20 L/min) was flowed through the spectrophotometer. Spectroscopic measurements (300 nm to 700 nm) were taken every 5 min for 2 hours. Data analysis was performed by using linear regression from the data retrieved for all wavelengths.
Table 4 below lists the delta R values where + indicates a delta R of between 0 and 30, ++ indicates a delta R of between 30 and 50, and +++ indicates a delta R of 50 or greater. Unless noted otherwise, the compounds in Table 2 were tested at 9 μM.

[2] = Pharmacokinetic I.V. study in rat; format: in vivo, Sprague Dawley rats; details: 7.8 mpk IV; for Vd: read-out: Vss; for half-life: read-out: t½ beta
Method: as §1

[3] = whole blood, PO 44 mg/kg, Blood
[4] = whole blood, PO 100 mg/kg, Blood
[5] = HCl salt, 0 min, animals A, B, C
[6] = HCl salt, 5 min, animals A, B, C, 7.8 mg/kg
[7] = HCl salt, 15 min, animals A, B, C, 7.8 mg/kg
[8] = HCl salt, 30 min, animals A, B, C, 7.8 mg/kg
[9] = HCl salt, 60 min, animals A, B, C, 7.8 mg/kg
[10] = HCl salt, 120 min, animals A, B, C, 7.8 mg/kg
[11] = HCl salt, 240 min, animals A, B, C, 7.8 mg/kg
[12] = HCl salt, 1440 min, animals A, B, C, 7.8 mg/kg
[13] = Sprague-Dawley, 7.8 mg/kg, Plasma
[14] = Sprague-Dawley, whole blood, 7.8 mg/kg, Blood

CC(C)n1nccc1-c1ncccc1COc1cccc(O)c1C=O [Compound 43, 2-hydroxy-6-((2-(1-isopropyl-1H-pyrazol-5-yl)pyridin-3-yl)methoxy)benzaldehyde]
delta p50% (HbS): +++ (+++ indicates a delta p50% of 50 or greater) | AUClast ([1]; PO 44 mg/kg, Blood): 395638.27 µmol·min/L | AUClast ([1]; PO 44 mg/kg, Plasma): 12517.54 µmol·min/L | AUClast ([1]; PO 100 mg/kg, Blood): 1384101.11 µmol·min/L | AUClast ([1]; PO 100 mg/kg, Plasma): 52836.17 µmol·min/L | AUClast ratio ([1]; Blood): 3.50 | Cmax ratio ([1]; Blood): 2.88 | AUClast ratio ([1]; Plasma): 4.22 | Cmax ratio ([1]; Plasma): 3.01 | Cmax ([1]; PO 44 mg/kg, Plasma): 14.8 µM | Tmax ([1]; PO 44 mg/kg, Plasma): 3.33 h | Cmax ([1]; PO 100 mg/kg, Plasma): 44.5 µM | Tmax ([1]; PO 100 mg/kg, Plasma): 11.3 h | Cmax [1, 3]: 381 µM | Tmax [1, 3]: 5.33 h | Cmax [1, 4]: 1100 µM | Tmax [1, 4]: 12 h | delta R (%) (HbS/A): +++ (30 μm) (+++ indicates a delta R of 50 or greater) | AUClast ([2]; Blood): 215846.3 µmol·min/L | blood conc [2, 5]: BLLOQ | plasma conc [2, 5]: BLLOQ | blood conc [2, 6]: 246 µM and 281 µM | plasma conc [2, 6]: 8.68 µM and 7.44 µM | blood conc [2, 7]: 341 µM and 285 µM | plasma conc [2, 7]: 8.42 µM and 7.16 µM | blood conc [2, 8]: 333 µM and 292 µM | plasma conc [2, 8]: 7.1 µM | blood conc [2, 9]: 203 µM and 285 µM | plasma conc [2, 9]: 7.52 µM and 7.22 µM | blood conc [2, 10]: 274 µM and 280 µM | plasma conc [2, 10]: 6.02 µM and 5.22 µM | blood conc [2, 11]: 225 µM and 259 µM | plasma conc [2, 11]: 5.24 µM and 5.88 µM | plasma conc ([2]; HCl salt, 480 min, animals A, B, C, 7.8 mg/kg): 2.66 µM and 3.15 µM | blood conc [2, 12]: 85 µM and 70.8 µM | plasma conc [2, 12]: 1.38 µM and 1.51 µM | AUClast ([2]; Plasma): 4114.8 µmol·min/L | clearance [2, 13]: 4.45 mL/min/kg | Vd [2, 13]: 4.11 L/kg | half-life [2, 13]: 619 min | concentration at 5 min ([2]; Sprague-Dawley, plasma, iv, 7.8 mg/kg, HCl salt, 5 min, animals A, B, C, read-out: plasma conc): 7.56 µM | concentration at 15 min ([2]; Sprague-Dawley, plasma, iv, 7.8 mg/kg, HCl salt, 15 min, animals A, B, C, read-out: plasma conc): 8.38 µM | concentration at 30 min ([2]; Sprague-Dawley, plasma, iv, 7.8 mg/kg, HCl salt, 30 min, animals A, B, C, read-out: plasma conc): 8.66 µM | concentration at 60 min ([2]; Sprague-Dawley, plasma, iv, 7.8 mg/kg, HCl salt, 60 min, animals A, B, C, read-out: plasma conc): 6.12 µM | concentration at 120 min ([2]; Sprague-Dawley, plasma, iv, 7.8 mg/kg, HCl salt, 120 min, animals A, B, C, read-out: plasma conc): 3.92 µM | concentration at 240 min ([2]; Sprague-Dawley, plasma, iv, 7.8 mg/kg, HCl salt, 240 min, animals A, B, C, read-out: plasma conc): 3.72 µM | concentration at 480 min ([2]; Sprague-Dawley, plasma, iv, 7.8 mg/kg, HCl salt, 480 min, animals A, B, C, read-out: plasma conc): 2060 nM | concentration at 1440 min ([2]; Sprague-Dawley, plasma, iv, 7.8 mg/kg, HCl salt, 1440 min, animals A, B, C, read-out: plasma conc): 1.07 µM | clearance [2, 14]: 0.08 mL/min/kg | Vd [2, 14]: 0.09 L/kg | half-life [2, 14]: 749 min | concentration at 5 min ([2]; Sprague-Dawley, whole blood, iv, 7.8 mg/kg, HCl salt, 5 min, animals A, B, C, read-out: blood conc): 259 µM | concentration at 15 min ([2]; Sprague-Dawley, whole blood, iv, 7.8 mg/kg, HCl salt, 15 min, animals A, B, C, read-out: blood conc): 287 µM | concentration at 30 min ([2]; Sprague-Dawley, whole blood, iv, 7.8 mg/kg, HCl salt, 30 min, animals A, B, C, read-out: blood conc): 283 µM | concentration at 60 min ([2]; Sprague-Dawley, whole blood, iv, 7.8 mg/kg, HCl salt, 60 min, animals A, B, C, read-out: blood conc): 256 µM | concentration at 120 min ([2]; Sprague-Dawley, whole blood, iv, 7.8 mg/kg, HCl salt, 120 min, animals A, B, C, read-out: blood conc): 263 µM | concentration at 240 min ([2]; Sprague-Dawley, whole blood, iv, 7.8 mg/kg, HCl salt, 240 min, animals A, B, C, read-out: blood conc): 248 µM | concentration at 1440 min ([2]; Sprague-Dawley, whole blood, iv, 7.8 mg/kg, HCl salt, 1440 min, animals A, B, C, read-out: blood conc): 81.1 µM
